For two molecules, EC50 and melting point results are on record in US9216960B2, “Spiro[2.4]heptanes for treatment of Flaviviridae infections” (University of Georgia Research Foundation, Inc., priority 2012, dated 2015).

For data set [1], the system named is hepatitis C virus genotype 1A. To be noted: Hu7 RNA replicon assay; cited from earlier work. A general note: A replicon is a self-replicating genome or part of one, used to study replication in cells.
Data set [2] has as its system hepatitis C virus genotype 1B. To be noted: Hu7 RNA replicon assay; cited from earlier work.

For the molecule `Nc1ncnc2c1ncn2[C@H]1[C@H](O)[C@H](O)[C@@H](CO)C12CC2` [cyclopropy-spirocarbocyclic adenosine, (4R,5S,6R,7R)-4-(6-amino-9H-pur-9-yl)-7-(hydroxymethyl)spiro[2.4]heptane-5,6 diol], the half-maximal effective concentration (EC50) (usually the concentration that produces a half-maximal response) in data set [1] was 273 nM; in data set [2] it was 368 nM.

Consider `O=c1ccn([C@H]2[C@H](O)[C@H](O)[C@@H](CO)C23CC3)c(=O)[nH]1`, for which the melting point (commonly the temperature, or range, at which the solid turns liquid) is 114 to 116 °C.
